{"source": "patent US20230277508A1", "about": "“USE OF COMPOUND AS CYP2E1 INHIBITOR” (SHANGHAI LING XI BIOTECHNOLOGY DEVELOPMENT CO., LTD., priority 2020, published 2023)", "key": {"[1]": {"molecular_target": "T1, human liver microsome CYP2E1 (Homo sapiens, UniProt P05181)", "T1 construct": "metabolic activity of a mixed liver microsome CYP2E1 of a healthy individual; from tissue; host or cells: mixed (pooled) human liver microsomes of healthy individuals", "T1 sequence (P05181 whole entry)": "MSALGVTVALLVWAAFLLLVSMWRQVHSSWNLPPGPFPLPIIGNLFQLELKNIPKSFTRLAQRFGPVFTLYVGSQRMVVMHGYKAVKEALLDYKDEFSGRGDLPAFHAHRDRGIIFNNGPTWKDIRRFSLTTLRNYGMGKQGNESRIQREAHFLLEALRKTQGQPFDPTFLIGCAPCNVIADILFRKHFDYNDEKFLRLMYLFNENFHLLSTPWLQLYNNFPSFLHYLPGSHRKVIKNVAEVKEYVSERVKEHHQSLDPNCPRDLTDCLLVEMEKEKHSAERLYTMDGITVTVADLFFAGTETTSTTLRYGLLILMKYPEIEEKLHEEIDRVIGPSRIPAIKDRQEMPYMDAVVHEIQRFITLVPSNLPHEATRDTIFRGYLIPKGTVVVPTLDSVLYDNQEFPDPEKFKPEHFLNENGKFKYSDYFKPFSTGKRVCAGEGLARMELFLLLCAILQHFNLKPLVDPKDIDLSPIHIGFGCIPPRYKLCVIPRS", "assay": "Determination of IC50 for a CYP2E1 inhibitory effect (CZX probe, mixed liver microsome)", "format": "biochemical", "conditions": "mixed liver microsome of healthy individuals 0.3 mg/mL, 62.5 μM CZX, 1 mM NADPH, 30 min; read-out: IC50 for 2E1 inhibition", "method": "CZX was used as a probe substrate to detect an inhibitory effect of an inhibitor to be tested on the metabolic activity of a mixed liver microsome CYP2E1 of a healthy individual (IC50: half inhibition concentration; Ki: inhibition constant; the smaller the IC50 and the smaller the Ki, the higher the inhibition intensity of the inhibitor), thereby determining an inhibitory effect of the inhibitor to be tested on the human liver microsome CYP2E1.\nAn incubation system in a total volume of 100 μL was adopted, including a substrate, an inhibitor of different concentrations, a liver microsomal protein, and phosphate-buffered saline (PBS). The incubation system was pre-incubated in a 37° C. water bath for 5 min, reduced coenzyme was added to allow a reaction for 30 min, and then the reaction was terminated in an ice bath. In a specific experiment, a concentration of an inhibitor can be selected as required.\nIn this example, the incubation system includes 62.5 μM CZX, 100 mM (pH=7.4) PBS, 0.3 mg/mL liver microsomal protein, and 1 mM NADPH.\nIn this example, the reaction is terminated with 1 mL of ethyl acetate. In other preferred examples, the reaction may also be terminated with 1 mL of methyl tert-butyl ether (MTBE), 1 mL of diethyl ether, or 100 μL of methanol."}, "[2]": {"tested_on": "B16-F10 cell lung metastasis", "assay": "Lung metastasis model, tail vein injection of melanoma cell B16-F10", "format": "in vivo, C57BL/6 mouse", "conditions": "SMI0 30 mg/kg, 14 days", "method": "Experimental method: A female C57BL/6 mouse lung metastasis model was constructed through tail vein injection of a melanoma cell B16-F10, with a cell amount of 8*10^5. Mice were divided into a control group, a model group, and an SMI0 intervention group, and the modeling took 14 days (control group, n=5; model group, n=5; and SMI0 (30 mg/kg), n=4). At the end of the experiment, a body weight of mice in each group was recorded, blood was collected from the orbit, the mice were sacrificed, and lung tissues were collected and weighed. The lung tissues were fixed in a formalin solution for 24 h, and a number of lung nodules of mice in each group was recorded."}, "CYP2E1": {"molecular_target": "T2, CYP2E1 (Mus musculus, UniProt Q05421)", "T2 construct": "from tissue; host or cells: liver microsomes of treated model mice (calcium precipitation)", "T2 sequence (Q05421 whole entry)": "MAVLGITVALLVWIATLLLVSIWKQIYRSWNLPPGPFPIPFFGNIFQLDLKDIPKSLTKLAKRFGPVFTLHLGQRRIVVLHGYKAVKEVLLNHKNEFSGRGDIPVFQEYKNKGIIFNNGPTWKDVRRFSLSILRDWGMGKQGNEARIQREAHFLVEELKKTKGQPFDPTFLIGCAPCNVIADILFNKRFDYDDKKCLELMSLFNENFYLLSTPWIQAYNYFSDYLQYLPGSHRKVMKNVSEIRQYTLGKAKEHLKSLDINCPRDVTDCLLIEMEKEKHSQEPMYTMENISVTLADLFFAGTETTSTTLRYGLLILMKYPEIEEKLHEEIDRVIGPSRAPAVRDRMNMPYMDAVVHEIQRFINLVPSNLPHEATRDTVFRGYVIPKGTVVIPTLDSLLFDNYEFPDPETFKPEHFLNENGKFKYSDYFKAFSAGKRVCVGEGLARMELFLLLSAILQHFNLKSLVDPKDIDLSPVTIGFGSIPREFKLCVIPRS", "assay": "CYP2E1 activity (liver microsome) in mouse Lewis lung cancer in situ model", "format": "in vivo", "conditions": "SMI0 intervention group vs model group, P<0.05", "method": "Experimental method: A calcium precipitation method was used to prepare a mouse liver microsome, and a Braford method was used to determine a protein concentration in the microsome. An incubation system was prepared with 2×PBS, a CZX solution, and the liver microsome at a final concentration of 0.5 mg/mL, and then pre-incubated at 37° C. for 5 min; NADPH was added to initiate a reaction, and a resulting mixture was incubated at 37° C. for 30 min and then placed on ice to terminate the reaction; and ethyl acetate was added to extract 6-hydroxychlorzoxazone, a resulting mixture was vortexed and centrifuged, and a resulting upper organic phase was collected and blow-dried with nitrogen. A peak area of a CZX metabolite 6-hydroxychlorzoxazone was detected by HPLC under the following conditions: methanol:water=56:44, and detection wavelength: 287 nm. A concentration A C of the metabolite 6-hydroxychlorzoxazone was calculated through substitution into a standard curve; and a reaction rate of conversion of CZX into 6-hydroxychlorzoxazone was calculated according to V(pmol/min/mg)=(ΔC*1000)/(B*T) to evaluate an enzymatic activity of CYP2E1, where B represents a protein concentration of the microsome (mg/mL) and T represents an incubation time (min). A correlation between CYP2E1 activity and lung tumor weight in the Lewis lung cancer in situ model was analyzed."}, "[3]": {"tested_on": "A549 lung cancer cells / M2 macrophages", "assay": "Proliferation of A549 cells co-cultivated with M2 macrophages (conditional media, CCK8)", "format": "cell-based, human", "conditions": "SMI0 50 μmol/L during M2 induction, vs M2 macrophage co-cultivation group, P<0.05", "method": "Experimental method: PMA was used at […] to induce the transformation of human monocytic leukemia cells THP-1 into MO macrophages, and then IL-4 and IL-13 were used at 20 ng/mL to induce the transformation of MO macrophages into M2 macrophages. A supernatant was collected to establish a co-cultivation system with an A549 lung cancer cell, thereby simulating a M2-type macrophage microenvironment of lung cancer. In the SMI0 intervention group, SMI0 (50 μmol/L) was added for intervention while interleukin was added for induction. Culture supernatants of the MO macrophages, M2 macrophages, and SMI0 intervention group were collected to prepare conditional media. […] cells/mL, then 100 μL of each of different conditional media was added to each well, and 24 h later, 10 μL of a CCK8 reagent was added to each well; and the cells were further cultivated for 2 h, and an absorbance OD value of each well was determined at 450 nm by a microplate reader. 3 replicates were set for each well, and an average was taken. The proliferation activity was calculated based on the OD value."}, "[4]": {"tested_on": "blood glucose level in diabetes rats", "assay": "Diabetes rat model induced by a high-fat diet and STZ", "format": "in vivo", "method": "Experimental method: A diabetes rat model was constructed by a high-fat diet+single intraperitoneal injection of STZ (40 mg/kg). A FBG level of higher than or equal to 16.7 mmol/L after two weeks of molding was a criterion for successful molding. Modeled rats were divided into various groups according to the blood glucose level. Rats in a model group were administered with NS, and rats in SMI0 low-dose and high-dose intervention groups were administered with the compound SMI0 at 30 mg/kg and 150 mg/kg every day, respectively. The FBG level in rats was determined and recorded regularly every week until the sixth week after administration. 10 rats were provided in each group."}}, "data": [{"smiles": "CC(=O)c1scnc1C", "note": "[SMI0]", "values": [{"measurement": "IC50", "setting": "[1]", "value": 1.64, "unit": "µM"}, {"measurement": "lung weight", "setting": "[2]; vs model group", "value": "significantly reduced"}, {"measurement": "number of nodules", "setting": "[2]; vs model group", "value": "significantly reduced"}, {"measurement": "tumor proliferation inhibition rate", "setting": "[2]; as high as", "value": 58.3, "unit": "%"}, {"measurement": "CYP2E1 activity", "setting": "CYP2E1", "value": "significantly reduced"}, {"measurement": "proliferation activity of A549 cells", "setting": "[3]", "value": "significantly weakened"}, {"measurement": "FBG levels", "setting": "[4]; SMI0 low-dose (30 mg/kg) and high-dose (150 mg/kg) daily, weeks 5 and 6, vs model group, P<0.05", "value": "significantly reduced"}, {"measurement": "glucose tolerance", "setting": "[4]; glucose tolerance test, SMI0 30 and 150 mg/kg daily", "value": "significantly improved"}]}]}
